Article PMC3034772 (Pharmaceutical research, 2010)
Where “and” joins values, the source holds several entries; their conditions need not be identical. Equal values may be shown once. Read-outs that look alike come from different tables or passages of the source.

What was measured:
[1] = Charge class Q, dominant calculated charge state at pH 7.4; type: physicochemical
[2] = PAMPA; for Pm^7.4: pH 7.4
[3] = in vivo
[4] = cited from earlier work
[5] = pKa determination, potentiometric; details: this work, 25°C, […] KCl (footnote b)
[6] = In combo PAMPA-BBB model, calculated log Po in situ
[7] = In situ brain perfusion, individual literature values; details: from literature PS
[8] = ref [38], cited from earlier work
[9] = PAMPA; for Pm^7.4: pH 7.4; remark: listed apart in the source
[10] = mouse, in vivo
[11] = mouse, in vivo; cited from earlier work
physchem = details: pKa
PAMPA-BBB Type II = details: 3 μL lipid-volume coated filters
[12] = dominant calculated concentration fraction of the drug in a charge state
[13] = efflux inhibition column: not satbl

SMILES | Q (charge class) [1] | log PABL [2] | log Po [2] | log Ppara [2] | Pm^7.4 [2] | PS ([4]; in vivo) | log PS ([4]; in vivo) | Q (charge class) [1, 12] | log Po [9] | other results
O=C(O)CCCc1ccc(N(CCCl)CCCl)cc1 [Chlorambucil] | − | −2.87 | −2.45 | −7.16 | 6 | 250 10^−4 mLg^−1s^−1 | −1.60 |  |  | log Po^in situ (obs) [3]: −0.80; pKa ([5]; second pKa column): 4.28; pKa [5]: 4.6; obs–calc (log Po^in situ) [6]: 0.3
CNCCC(Oc1ccc(C(F)(F)F)cc1)c1ccccc1 (stereo not drawn) [Fluoxetine] |  |  |  |  |  |  |  |  |  | pKa [5]: 9.79
CC(C(=O)O)c1ccc(-c2ccccc2)c(F)c1 (stereo not drawn) [Flurbiprofen] |  | −2.84 | −2.35 | −6.99 | 3 | 158 10^−4 mLg^−1s^−1 | −1.80 | − |  | log Po^in situ (obs) [7, 13]: −0.58; pKa [8]: 4.18; obs–calc (log Po^in situ) [6, 13]: 0.0
CC(C)n1c(/C=C/C(O)CC(O)CC(=O)O)c(-c2ccc(F)cc2)c2ccccc21 (stereo not drawn) [Fluvastatin Acid] |  |  |  |  |  |  |  | − | −3.56 | Pm^7.4 [9]: 0.2; obs–calc (log Po^in situ) ([6]; no efflux inhibition): 0.9
OCCOCCN1CCN(C(c2ccccc2)c2ccc(Cl)cc2)CC1 (stereo not drawn) [Hydroxyzine] |  | −3.26 | −3.72 | −8 | 82 |  |  | 0 |  | log Po^in situ (obs) ([7]; efflux inhibition CsA): −3.04; pKa [8]: 7.52; pKa ([8]; second pKa column): 2.66; PS ([4]; efflux inhibition CsA): 393 10^−4 mLg^−1s^−1; log PS ([4]; efflux inhibition CsA): −1.41; obs–calc (log Po^in situ) ([6]; efflux inhibition CsA): 0.6; obs–calc (log Po^in situ) ([6]; no efflux inhibition): 0.7
CCOC(=O)C1(c2ccccc2)CCN(C)CC1 [Meperidine] | + |  |  |  |  | 549 10^−4 mLg^−1s^−1 | −1.26 |  | −1.68 | log Po^in situ (obs) [10]: −2.08; log Po^in situ (obs) [3]: −2.05; Pm^7.4 [9]: 1290; PS [11]: 525 10^−4 mLg^−1s^−1; log PS [11]: −1.28; obs–calc (log Po^in situ) [6]: −0.5
CCC(=O)C(CC(C)N(C)C)(c1ccccc1)c1ccccc1 (stereo not drawn) [Methadone] |  |  |  |  |  |  |  |  | −2.18 | 
O=C1C[C@@H](c2ccc(O)cc2)Oc2cc(O)cc(O)c21 [Naringenin] |  | −4.00 | −3.94 | −6.93 | 33 | 105 10^−4 mLg^−1s^−1 | −1.98 | 0 |  | log Po^in situ (obs) ([7]; efflux inhibition PSC833): −3.96; pKa (physchem): 10.4; obs–calc (log Po^in situ) ([6]; efflux inhibition PSC833): 0.0
COc1ccc(C(CN(C)C)C2(O)CCCCC2)cc1 (stereo not drawn) [Venlafaxine] | + |  |  |  |  | 104 10^−4 mLg^−1s^−1 | −1.98 |  |  | log Po^in situ (obs) [3]: −1.66; log Po (PAMPA-BBB Type II; PAMPA-BBB intrinsic permeability, Type II and I/II): −2.17; log PABL (PAMPA-BBB Type II; aqueous boundary layer permeability, Type II and I/II): −3.22; Pm^7.4 (PAMPA-BBB Type II; membrane permeability at pH 7.4, Type II and I/II): 32; obs–calc (log Po^in situ) [6]: 0.6
CC[C@]1(O)C[C@@H]2CN(CCc3c([nH]c4ccccc34)[C@@](C(=O)OC)(c3cc4c(cc3OC)N(C)[C@H]3[C@@](O)(C(=O)OC)[C@H](OC(C)=O)[C@]5(CC)C=CCN6CC[C@]43[C@@H]65)C2)C1 [Vinblastine] |  | −3.25 | −4.36 | −5.54 | 32 | 4 10^−4 mLg^−1s^−1 | −3.37 | 0 |  | log Po^in situ (obs) ([7]; efflux inhibition GF120918): −4.94; log Po^in situ (obs) ([7]; efflux inhibition PSC833): −5.06; PS ([4]; efflux inhibition GF120918): 6 10^−4 mLg^−1s^−1; log PS ([4]; efflux inhibition GF120918): −3.25; obs–calc (log Po^in situ) ([6]; efflux inhibition GF120918): 0.2; obs–calc (log Po^in situ) ([6]; efflux inhibition PSC833): 0.1; obs–calc (log Po^in situ) ([6]; efflux inhibition mdr1a(−/−)): 0.2 and 0.4
NC(Cc1ccc(F)cc1)C(=O)O (stereo not drawn) [p-F-Phenylalanine] | ± |  |  |  |  |  |  |  | −6.13 | Pm^7.4 [9]: 0.7
